Laboratory results as given in patent US5385842A, “Anthraquinones as inhibitors of sulfide production from sulfate-reducing bacteria” (E. I. Du Pont de Nemours and Company, priority 1993, dated 1995).

How the values were obtained:
[1] = test system: Desulfovibrio desulfuricans G100A; assay: microbe, parasite or virus in culture; type: cell-based; details: Desulfovibrio desulfuricans, G100A, read-out: % Inhib. (inhibition of sulfide production)
D. desulfuricans G100A [2] = assay: Growth of D. desulfuricans G100A after addition of inhibitor at 12 h; type: cell-based
Experimental: Four 10 ml culture tubes of BTZ-3 medium as defined in Example 1 supplemented with sodium lactate (40 mM) and sodium sulfate (30 mM) and 0.5 ml of reducing agent were inoculated with 100 ul of a fully grown suspension of D. desulfuricans G100A. The culture was allowed to grow and the optical density at 660 nm was monitored until the cells entered into exponential growth (approx. 12-15 h, O.D. 660=0.1-0.2). At this time 100 ul of a 300 ppm solution of 1,8 dihydroxyanthraquinone, 1-chloranthraquinone or 3-chloro-2-anthraquinone carboxylic acid, respectively, was added to one of the tubes. The ethanol:water (80:20) solvent (100 μl ) was added to the fourth tube to serve as an uninhibited control.
#3 ppm inhibitor added at 12 hours

D. desulfuricans G100A [3] = assay: Growth of different sulfate-reducers with 1,8-dihydroxyanthraquinone (Example 6); type: cell-based; details: 3 ppm, 40 hours; control >1.5
Experimental: (§1) Growth was monitored as optical density at 660 nm for 40 hours.

D. desulfuricans Norway = assay: Growth of different sulfate-reducers with 1,8-dihydroxyanthraquinone (Example 7); type: cell-based; details: 3 ppm, 40 hours; control .30
Experimental: as §1

D. salexigens = assay: Growth of different sulfate-reducers with 1,8-dihydroxyanthraquinone (Example 8); type: cell-based; details: 3 ppm, 40 hours; control >1.5
Experimental: as §1

[4] = test system: sulfate reducing bacteria (crude enrichments from various naturally-occuring environments); assay: Sulfide production by crude enrichments from naturally-occurring environments; type: cell-based; details: 5 ppm
Experimental: All samples were grown on standard BTZ-3 medium (as defined in Example 1) under hydrogen (80%) carbon dioxide (20%) with 10 mM acetate and 0.1% yeast extract. Mud samples were inoculated into this medium and allowed to grow for 24 h to enrich for sulfate reducing bacteria. A 1 ml aliquot of this enrichment was transferred to fresh medium and the sulfide evolved was measured over a three day period. Sulfide was assayed as described by Siegal, Anal. Biochem. 11: 126-132, 1965, herein incorporated by reference.

[5] = test system: D. desulfuricans #ATCC27774; assay: Rate of hydrogen utilization in the presence of different electron acceptors; type: cell-based
From the text: The following experiments show the effect of the 1,8-dihydroxy-anthraquinone on the rate of hydrogen utilization by bacteria in the presence of different electron acceptors.

Desulfovibrio gigas = assay: Sulfide production by resting cells of D. gigas; type: cell-based
Experimental: Experiments in this example were carried out using resting cells of Desulfovibrio gigas rather than growing cells as was the case for the autoanalyzer system employing the Desulfovibrio desulfuricans G100A strain. […] Thus the experiment examined a different organism, different test system, and a different physiological state for the phenomenon of anthraquinone inhibition of sulfide production by Desulfovibrio sp. Active compounds, as determined by the autoanalyzer, were evaluated in comparison with four additional compounds not evaluated in the autoanalyzer.
500 ml cultures of Desulfovibrio gigas were grown on standard BTZ-3 medium as previously described in Example 1 with 30 mM sodium lactate, 30 mM sodium sulfate and 30 mM sodium fumarate. The culture was harvested after 24 h of growth at 31° C. by centrifugation at 8000 rpm in a GSA Sorvall rotor for 20 minutes. The cell pellet was resuspended in 30 ml of incubation assay mixture of the following composition: 50 mM HEPES buffer pH 7 buffer, 2.5 mM sodium lactate, 2.5 mM sodium sulfate. This suspension was centrifuged again at 10,000 rpm in a Sorvall SS-34 rotor for 5 minutes. The resulting cell pellet was resuspended in 5 ml of incubation assay buffer. Cell densities were generally near 10e10 cells/mi.
The samples were assayed for production in the presence of anthraquinones. 200 ul of the cell suspension was added to 1.2 ml of incubation assay mixture in a 5 ml capacity test tube. The tube was gassed with hydrogen gas for 20 minutes then the anthraquinones were added as ethanolic solutions, the tubes were then gassed with hydrogen again for 5 minutes. The reaction mixtures were then incubated for 3 hours at 31° C. The reactions were stopped by the addition of 200 ul of 1N sodium hydroxide. After 20 minutes the alkaline mixtures were centrifuged in a table top microfuge for 4 minutes at 14,000 rpm to remove cells and cell debris. The supernatant was then assayed for sulfide using the ferric chloride-DPD reagent system as described by Siegel et al., Anal. Blochem., 11:126-132, 1965, herein incorporated by reference.

[6] = test system: B. aureus, B. subtilis, B. stearothermophilus and S. aureus; details: background art; cited from earlier work
[7] = test system: D. desulfuricans #ATCC27774; assay: Respiration rate (hydrogen gas uptake) with sulfate as electron acceptor; details: Desulfovibrio desulfuricans, ATCC27774, 4 h, pH 7, read-out: Gas Uptake (as percent of control)

O=C1c2cccc(O)c2C(=O)c2c(O)cccc21 [1,8-Dihydroxyanthraquinone]
inhibition at 10 ppm [1]: 82.2% | optical density reading at 660 nm (D. desulfuricans G100A [2]; 0 h of growth, before addition of 3 ppm inhibitor at 12 h): .01 | optical density reading at 660 nm (D. desulfuricans G100A [2]; 10 h of growth, before addition of 3 ppm inhibitor at 12 h): .12 | optical density reading at 660 nm (D. desulfuricans G100A [2]; 12 h of growth, 3 ppm inhibitor added at 12 h): .20 | optical density reading at 660 nm (D. desulfuricans G100A [2]; 14 h of growth, 3 ppm inhibitor added at 12 h): .19 | optical density reading at 660 nm (D. desulfuricans G100A [2]; 18 h of growth, 3 ppm inhibitor added at 12 h): .16 | optical density reading at 660 nm (D. desulfuricans G100A [2]; 20 h of growth, 3 ppm inhibitor added at 12 h): .16 | optical density reading at 660 nm (D. desulfuricans G100A [2]; 24 h of growth, 3 ppm inhibitor added at 12 h): .16 | optical density reading at 660 nm (D. desulfuricans G100A [2]; 29 h of growth, 3 ppm inhibitor added at 12 h): .18 | optical density reading at 660 nm (D. desulfuricans G100A [2]; 34 h of growth, 3 ppm inhibitor added at 12 h): .18 | optical density reading at 660 nm (D. desulfuricans G100A [2]; 62 h of growth, 3 ppm inhibitor added at 12 h): .30 | optical density reading at 660 nm (D. desulfuricans G100A [2]; 92 h of growth, 3 ppm inhibitor added at 12 h): .28 | Optical Density @ 660 nm, treated (D. desulfuricans G100A [3]): .20 | Optical Density @ 660 nm, treated (D. desulfuricans Norway): .09 | Optical Density @ 660 nm, treated (D. salexigens): .06 | inhibition of enrichments (in words) [4]: the majority of enrichments from natural sources were inhibited | sulfide production, treated ([4]; SM-Lewes (Lewes saltmarsh), control 6.4): 4.5 umol sulfide/day | sulfide production, treated ([4]; VF-A2 (Valley Garden Park, aerobic), control 64.0): -11.0 umol sulfide/day | sulfide production, treated ([4]; VF-A (Valley Garden Park, aerobic), control 24.0): -2.0 umol sulfide/day | sulfide production, treated ([4]; VF-AN (Valley Garden Park, anaerobic), control 67.0): 2.8 umol sulfide/day | sulfide production, treated ([4]; VS-A (Valley Stream State Park, aerobic), control 49.0): -1.0 umol sulfide/day | sulfide production, treated ([4]; VS-AN2 (Valley Stream State Park, anaerobic), control 116.0): 0.0 umol sulfide/day | sulfide production, treated ([4]; VS-AN (Valley Stream State Park, anaerobic), control 12.0): -4.0 umol sulfide/day | sulfide production, treated ([4]; WADS (Wilmington anaerobic digestor), control 106.7): 71.0 umol sulfide/day | sulfide production, treated ([4]; WCC-A1 (White Clay Creek Preserve, aerobic), control 411.0): 67.0 umol sulfide/day | sulfide production, treated ([4]; WCC-A2 (White Clay Creek Preserve, aerobic), control 388.0): 49.0 umol sulfide/day | sulfide production, treated ([4]; WCC-AN1 (White Clay Creek Preserve, anaerobic), control 345.0): 80.0 umol sulfide/day | sulfide production, treated ([4]; WCC-AN2 (White Clay Creek Preserve, anaerobic), control 288.0): 37.0 umol sulfide/day | Hydrogen ([5]; Fumarate as electron acceptor, 3 ppm, 0 min, control 0): 0 µL | Hydrogen ([5]; Fumarate as electron acceptor, 3 ppm, 10 min, control 9): 8 µL | Hydrogen ([5]; Fumarate as electron acceptor, 3 ppm, 25 min, control 23): 25 µL | Hydrogen ([5]; Fumarate as electron acceptor, 3 ppm, 40 min, control 47): 48 µL | Hydrogen ([5]; Fumarate as electron acceptor, 3 ppm, 55 min, control 70): 74 µL | Hydrogen ([5]; Fumarate as electron acceptor, 3 ppm, 70 min, control 95): 101 µL | Hydrogen ([5]; Sulfate as electron acceptor, 3 ppm, 0 min, control 0): 0 µL | Hydrogen ([5]; Sulfate as electron acceptor, 3 ppm, 10 min, control 15): 3 µL | Hydrogen ([5]; Sulfate as electron acceptor, 3 ppm, 25 min, control 44): 14 µL | Hydrogen ([5]; Sulfate as electron acceptor, 3 ppm, 40 min, control 76): 21 µL | Hydrogen ([5]; Sulfate as electron acceptor, 3 ppm, 55 min, control 107): 28 µL | Hydrogen ([5]; Sulfate as electron acceptor, 3 ppm, 70 min, control 152): 38 µL | Hydrogen ([5]; Sulfate as electron acceptor, 3 ppm, 85 min, control 208): 45 µL | Hydrogen ([5]; Sulfate as electron acceptor, 3 ppm, 100 min, control 266): 56 µL | Hydrogen ([5]; Sulfate as electron acceptor, 3 ppm, 115 min, control 336): 74 µL | Hydrogen ([5]; Sulfite as electron acceptor, 3 ppm, 0 min, control 0): 0 µL | Hydrogen ([5]; Sulfite as electron acceptor, 3 ppm, 6 min, control 7): 7 µL | Hydrogen ([5]; Sulfite as electron acceptor, 3 ppm, 16 min, control 26): 25 µL | Hydrogen ([5]; Sulfite as electron acceptor, 3 ppm, 26 min, control 45): 43 µL | Hydrogen ([5]; Sulfite as electron acceptor, 3 ppm, 59 min, control 139): 141 µL | Hydrogen ([5]; Sulfite as electron acceptor, 3 ppm, 71 min, control 179): 183 µL | Hydrogen ([5]; Thiosulfate as electron acceptor, +6 ppm, 0 min, control 0): 0 µL | Hydrogen ([5]; Thiosulfate as electron acceptor, +6 ppm, 11 min, control 38): 33 µL | Hydrogen ([5]; Thiosulfate as electron acceptor, +6 ppm, 21 min, control 90): 73 µL | Hydrogen ([5]; Thiosulfate as electron acceptor, +6 ppm, 31 min, control 144): 118 µL | Hydrogen ([5]; Thiosulfate as electron acceptor, +6 ppm, 41 min, control 204): 176 µL | activity at 0.1 ppm (Desulfovibrio gigas; Desulfovibrio, 0.1 ppm, 3 hours at 31° C.): 101% | activity at 0.5 ppm (Desulfovibrio gigas; Desulfovibrio, 0.5 ppm, 3 hours at 31° C.): 51% | activity at 2 ppm (Desulfovibrio gigas; Desulfovibrio, 2 ppm, 3 hours at 31° C.): 4% | activity at 5 ppm (Desulfovibrio gigas; Desulfovibrio, 5 ppm, 3 hours at 31° C.): 2.3% | inhibition of sulfide production (in words) (Desulfovibrio gigas; resting cells): inhibitory properties | antibacterial activity (in words) [6]: inactive | activity at 0.6 ppm [7]: 66% | activity at 1.5 ppm [7]: 45% | activity at 3 ppm [7]: 30%
